Measured values published in patent US9017963B2, “Method for detecting microorganisms” (Woundchek Laboratories (US), Inc., priority 2002, dated 2015).
*: point of attachment. Dabsyl = label, CN(C)c1ccc(/N=N/c2ccc(S(=O)(=O)*)cc2)cc1; EDANS = O=S(=O)(O)c1cccc2c(NCCN*)cccc12

Legend:
[1] = tested on: Serratia marcescens specific protease; experiment: Serratia protease FRET assay, S. marcescens culture; format: biochemical
Text: A Serratia marcescens specific protease was identified based on a homology search using the sequence of a known sspB protease found in the Staphylococcus species. This protease has homology to the cysteine protease precursor (sspB) protein of Staphylococcus aureus. The corresponding Serratia protease has not been previously characterized. To test for the presence of the specific protease in a bacterial culture, a short target peptide was designed. This target peptide was derived from a polypeptide substrate previously shown to be cleaved by S. aureus sspB (Chan and Foster, J. Bacteriology 180:6232-6241, 1998). This peptide was capped by a fluorescent dye molecule on one end and by an associated chromophore molecule on the other end. If the absorption band of the chromophore has sufficient overlap with the absorbance band associated with the fluorescence of the dye molecule, the observed fluorescence will be quenched. This phenomenon is known as fluorescence resonance energy transfer (FRET) and can be used to determine the distance between the FRET donor and acceptor molecules. Upon cleavage of the peptide the fluorescent indicator is released from the proximity of the quencher and the fluorescence increase is measured. Thus, the presence or absence of a protease that targets the peptide in the sample can be determined by detecting fluorescence emitted by the cleaved peptide. […]

S. epidermidis = experiment: Indolyl ester glass microfiber filter sensor, S. epidermidis; format: biochemical, Staphylococcus epidermidis; conditions: substrates bound to glass microfiber filter; FIG. 17B
Text: Hydrophobic interactions make use of the non-ionic packing that occurs in a polar solvent such as water and such interactions can be used in the production of biosensors for detection of pathogens. The substrates 5-bromo-4-chloro-3indolyl butyrate and 5-bromo-4-chloro-3indolyl caprylate can be spotted onto a glass microfiber filter to make a sensor. Upon spotting the filter with a small amount of Staphylococcus (aureus or epidermidis) culture medium the color of the filter will turn blue in approximately 15 minutes.

S. pyogenes = experiment: Indolyl ester glass microfiber filter sensor, S. pyogenes; format: biochemical, Streptococcus pyogenes; conditions: substrates bound to glass microfiber filter; FIG. 17B
[2] = tested on: autolysins (Enterococcus faecalis); experiment: Autolysin assay, E. faecalis supernatant; format: biochemical; conditions: 20° C., 7 hours
Protocol: (§1) A culture of each of the following bacterial species was grown to saturation in Brain Heart Infusion (BHI) broth at 37° C. with vigorous shaking (˜200 rpm), using methods that are standard in the art: Staphylococcus aureus; Staphylococcus epidermidis; Serratia marcescens; Streptococcus salivarius; Escherichia coli; Pseudomonas aeruginosa; and Enterococcus faecalis. After overnight growth (to saturation), a 1 mL sample of each culture was obtained, and the cells were removed from the culture supernatant by centrifugation at 12,000×g for 5 minutes. The remaining culture supernatants were stored on ice until required (less than one hour). The bacteria were assayed for the presence or absence of specific enzymes as described below. […]
(§2) To test for the presence of autolysins in bacterial cell culture supernatants, the synthetic autolysin substrate p-nitrophenyl-N-acetyl-b-D-glucosaminide (PNP-AGA), a substrate containing a dye that is detected at […] when the substrate is modified, was dissolved in 50% DMSO to a final concentration of 20 mM to form a substrate solution. Modification of this substrate can be detected by measuring the change in absorbance at 405 nm. […] The progress of modification of the labeled substrate was monitored by absorbance at 405 nm.

[3] = tested on: other bacterial culture supernatants of Example 2; experiment: Autolysin assay, other culture supernatants; format: biochemical; conditions: other culture supernatants vs water control; 20° C., 7 hours
Protocol: as §1, §2

lipase from S. aureus = experiment: Lipase assay, S. aureus culture supernatant; format: biochemical, Staphylococcus aureus; conditions: 20 mM Tris (pH 8.3) with 1 mM ZnSO4, 20% methanol, 20% DMSO, or 10 mM Triton X-100 vs control
Protocol: (§3) A culture of each of the following bacterial species was grown to saturation in Brain Heart Infusion (BHI) broth at 37° C. with vigorous shaking (˜200 rpm), using methods that are standard in the art: Staphylococcus aureus; Staphylococcus epidermidis; Serratia marcescens; Streptococcus salivarius; Escherichia coli; Pseudomonas aeruginosa; and Enterococcus faecalis. After overnight growth (to saturation), a 1 mL sample of each culture was obtained, and the cells were removed from the culture supernatant by centrifugation at 12,000×g for 5 minutes. The remaining culture supernatants were stored on ice until required (less than one hour). The bacteria were assayed for the presence or absence of specific enzymes as described below. Alternatively, the bacterial cells are not separated from the culture supernatant, but rather, the assay is carried out on a sample containing the cells still in suspension in their culture broth.
To test for the presence or absence of lipases secreted by bacteria, the lipase substrate p-nitrophenyl caprate, obtained from Sigma (Catalog No.: N-0252). This lipase substrate consists of capric acid, a ten-carbon lipid molecule, esterified with the dye para nitrophenol (detectable label) as described above. The substrate was dissolved in isopropyl alcohol at a concentration of 8 mM (2.35 mg/mL). A reaction buffer containing 20 mM Tris (pH 8.5) was also prepared.
To perform the lipase assay, 80 μL of reaction buffer, 10 μL of culture supernatant from each bacteria species described in Example 2, and 10 μL of assay substrate were added to a well of a 96-well microplate. Each bacterial species was assayed individually, and the assays were performed in triplicate. The 96-well plate was incubated at 37° C. for 60 minutes. At 5 minute intervals during the incubation period, absorbance at 415 nm, indicating modification of the enzyme by a lipase secreted by the cells, was automatically measured using a BioRad Benchmark Microplate reader.
However, it is known that bacterial lipases do show strong substrate specificity with regard to the chain length of the fatty acid they hydrolyze (Van Kampen et al., BBA, 1544: 229, 2001) and to the location in a lipid layer. The degree that the environment of the substrate affects the efficiency of hydrolysis depends on the particular enzyme. To test this for the lipase from S. aureus, the above-described lipase assay was performed in the presence of several detergent and solvent additives. The reaction buffer consisted of 20 mM Tris (pH 8.3) with 1 mM ZnSO4 added, plus either nothing additional (control), 20% methanol, 20% DMSO, or 10 mM Triton X-100.

[4] = tested on: Staphylococcus aureus, Listeria monocytogenes, Pseudomonas aeruginosa, Enterococcus faecalis, Streptococcus salivarius, Escherichia coli cultures; experiment: Serratia protease FRET assay, other bacterial pathogen samples; format: biochemical; conditions: other bacterial samples vs water control; same conditions
Protocol: The specificity of the protease for Serratia marcescens is was determined by detecting cleavage of a target polypeptide, using FRET, by the protease in a number of different bacterial pathogen samples. The bacterial pathogen samples used in this study were all taken from overnight cultures grown in brain heart […] (BHI) media at 37° C., as described herein. The bacterial pathogens chosen for this study were: Staphylococcus aureus, Listeria monocytogenes, Pseudomonas aeruginosa, Enterococcus faecalis, Streptococcus salivarius, Serratia marcescens, and Escherichia coli. The target peptide substrate used to test for the Serratia marcescens specific protease was as follows: Dabsyl-NEAIQEDQVQYE-Edans (SEQ ID NO: 2), and was prepared using standard methods known to one skilled in the art. A substrate solution containing 1 mg/mL to 5 mg/mL of target peptide substrate in 1:1 water/dimethylsulfoxide (DMSO) was prepared. The reaction buffer used was 20 mM Tris (pH 7.5) with 200 mM NaCl. […] The narrow band filters in the fluorimeter were centered at 305 nm for excitation and 485 nm for fluorescence emission readings. The samples were incubated at 37° C. and the fluorescence of each sample was measured at time points taken every 10 minutes. […]

[5] = tested on: Serratia marcescens specific protease; experiment: Biosensor: target peptide bound to Cell Debris Remover, exposed to Serratia marcescens extract; format: biochemical
Text: An example of a biosensor for the detection of a Serratia marcescens (S. marcescens) specific protease, and therefore, for the detection of Serratia marcescens now follows. The Serratia marcescens specific target peptide substrate was bound to a surface with a weak positive charge, such as fibrous cellulose lightly substituted with DEAE (Cell Debris Remover, Whatman, Inc.).

[6] = tested on: beta-galactosidase (Streptococcus salivarius); experiment: Beta-galactosidase assay, S. salivarius supernatant; format: biochemical; conditions: 37° C.
Protocol: as §3
(§4) To determine the presence or absence of bacteria in a sample, mid-log phase bacterial supernatants were obtained as described in Example 2. A substrate solution containing the labeled synthetic substrate ortho-nitrophenyl-b-D-galactopyranoside (ONPG) dissolved in 50% DMSO to a concentration of 20 mM was prepared. […] The samples were incubated at 37° C. and absorbance at 420 nm was measured hourly.

[7] = tested on: beta-galactosidase (other bacterial supernatants of Example 2); experiment: Beta-galactosidase assay, other species; format: biochemical; conditions: 37° C.
Protocol: as §3, §4

Compound: O=C(O)CN(CCN(CC(=O)O)CC(=O)O)CC(=O)O [EDTA, ethylenediaminetetraacetic acid]
- effect of EDTA on protease activity (relative fluorescence of the target peptide) ([1]; One mM EDTA added to 20 mM Tris (pH 7.5) with 200 mM NaCl, Serratia culture): No reduction in activity

Compound: CCCCCCCC(=O)Oc1c[nH]c2ccc(Br)c(Cl)c12 [5-bromo-4-chloro-3indolyl caprylate]
- detection on filter sensor (dark spot) (S. epidermidis): dark spot corresponding to S. epidermidis indicates detection
- detection on filter sensor (S. pyogenes): did not detect S. pyogenes

Compound: CC(=O)N[C@H]1[C@H](Oc2ccc([N+](=O)[O-])cc2)O[C@H](CO)[C@@H](O)[C@@H]1O [PNP-AGA, p-nitrophenyl-N-acetyl-b-D-glucosaminide]
- modification of substrate (change in absorbance at 405 nm) [2]: reacted with the substrate, giving rise to a color change
- modification of substrate (change in absorbance at 405 nm) [3]: None of the other culture supernatants were distinguishable from the water control

Compound: CCCC(=O)Oc1c[nH]c2ccc(Br)c(Cl)c12 [5-bromo-4-chloro-3indolyl butyrate]
- detection on filter sensor (dark spot) (S. epidermidis): dark spot corresponding to S. epidermidis indicates detection
- detection on filter sensor (S. pyogenes): did not detect S. pyogenes

Compound: C[S+](C)[O-] [DMSO]
- effect of additive on hydrolysis rate of p-nitrophenyl caprate (lipase from S. aureus): hydrolysis rate was found to increase

Compound: Triton X-100
- effect of additive on hydrolysis rate of p-nitrophenyl caprate (lipase from S. aureus): hydrolysis rate was found to increase

Compound: Dabsyl-NEAIQEDQVQYE-Edans (Dabsyl-NEAIQEDQVQYE-{EDANS}; SMILES CC[C@H](C)[C@H](NC(=O)[C@H](C)NC(=O)[C@H](CCC(=O)O)NC(=O)[C@H](CC(N)=O)NS(=O)(=O)c1ccc(/N=N/c2ccc(N(C)C)cc2)cc1)C(=O)N[C@@H](CCC(N)=O)C(=O)N[C@@H](CCC(=O)O)C(=O)N[C@@H](CC(=O)O)C(=O)N[C@@H](CCC(N)=O)C(=O)N[C@H](C(=O)N[C@@H](CCC(N)=O)C(=O)N[C@@H](Cc1ccc(O)cc1)C(=O)N[C@@H](CCC(=O)O)C(=O)NCCNc1cccc2c(S(=O)(=O)O)cccc12)C(C)C) [target peptide substrate used to test for the Serratia marcescens specific protease]
- cleavage of target peptide substrate (relative fluorescence intensity over time) ([1]; S. marcescens overnight culture in BHI, 20 mM Tris (pH 7.5) with 200 mM NaCl, 37° C., emission 485 nm): reacted with the substrate, giving rise to an increase in fluorescence intensity
- cleavage of target peptide substrate (relative fluorescence intensity over time) [4]: None of the other bacterial samples, including the Staphylococcus aureus sample, were distinguishable from the control
- fluorescence of biosensor [5]: fluorescence was readily detected

Compound: CO [methanol]
- effect of additive on hydrolysis rate of p-nitrophenyl caprate (lipase from S. aureus): hydrolysis rate was found to increase

Compound: O=[N+]([O-])c1ccccc1O[C@@H]1O[C@H](CO)[C@H](O)[C@H](O)[C@H]1O [ONPG, ortho-nitrophenyl-b-D-galactopyranoside]
- reaction with substrate (absorbance at 420 nm) [6]: reacted with the substrate
- reaction with substrate (absorbance at 420 nm) [7]: other species did not
